From ChEMBL document CHEMBL4828751, “Discovery of novel tubulin/HDAC dual-targeting inhibitors with strong antitumor and antiangiogenic potency” (Eur J Med Chem, 2021)
The source made the active and inactive calls. The rule behind the calls is not given here.

Experiments:
MGC-803 [1] = assay: Induction of ROS generation in human MGC-803 cells assessed as increase in intracellular ROS level incubated for 24 hrs by DCFH-DA staining based flow cytometric analysis; format: functional, cell-based; settings: dose 7.5-30 nM
HUVEC [2] = assay: Antivascular activity against HUVEC assessed as inhibition of tube formation at 5 to 20 nM incubated for 48 hrs by […]; format: functional, cell-based; settings: Homo sapiens, dose 5-20 nM
L02 = assay: Cytotoxicity against human L02 cells assessed as reduction in cell viability; format: cell-based
MGC-803 [3] = assay: Induction of ROS generation in human MGC-803 cells assessed as intracellular ROS level at 15 nM incubated for 24 hrs by DCFH-DA staining based flow cytometric analysis (reference value: 2.72 %); format: functional
MGC-803 [4] = assay: Antiproliferative activity against human MGC-803 cells assessed as cell growth inhibition after 72 hrs by SRB assay; format: functional, cell-based; settings: MGC-803, 72 h
Tubulin (Homo sapiens) = Tubulin (Homo sapiens) (UniProt P68371+Q9H4B7+P0DPH7+P68366+Q13509+Q71U36+P04350+Q3ZCM7+P07437+P68363+Q9BQE3+Q6PEY2+Q13885+Q9BVA1+Q9BUF5); assay: Inhibition of tubulin polymerization in human MGC-803 cells assessed as change in shape of nucleus at 2 to 7.5 nM measured after 48 hrs by Hoechst staining based confocal microscopy analysis; format: cell-based; settings: dose 2-7.5 nM
HUVEC [5] = assay: Antiinvasive activity in HUVEC cells assessed as decrease in cell invasion at 5 to 20 nM measured after 48 hrs by transwell assay; format: functional, cell-based; settings: Homo sapiens, dose 5-20 nM
Danio rerio = species on record: Danio rerio; assay: Antiangiogenic activity in 30hpf transgenic Tg(flk:EGFP) zebra fish embryos assessed as reduction in number of intersegmental vessels by confocal fluorescence microscopy analysis; format: functional, organism-based; settings: Embryo, dose 0.1-0.6 µM
MGC-803 [6] = assay: Antitumor activity against CMTPX- labeled human MGC-803 cells xenografted in zebrafish assessed as inhibition of tumor metastasis measured after 72 hrs by fluorescence microscopic analysis; format: functional, cell-based; settings: dose 25-100 nM
MGC-803 [7] = assay: Induction of cell cycle arrest in human MGC-803 cells assessed as accumulation at G2/M phase at 15 nM incubated for 24 hrs by propidium iodide staining based flow cytometry (reference value: 37.03 %); format: functional
MGC-803 [8] = assay: Induction of cell cycle arrest in human MGC-803 cells assessed as accumulation at G2/M phase at 30 nM incubated for 24 hrs by propidium iodide staining based flow cytometry (reference value: 37.03 %); format: functional
HUVEC [9] = assay: Inhibition of cell migration in HUVEC cells assessed as decrease in number of migrated endothelial cells at 5 to 20 nM measured after 48 hrs by transwell analysis; format: functional, cell-based; settings: Homo sapiens, dose 5-20 nM
MGC-803 [10] = assay: Induction of apoptosis in human MGC-803 cells assessed as early apoptotic cells at 30 nM measured after 48 hrs by Annexin V-APC/PI double staining based flow cytometry assay (reference value: 1.31 %); format: functional, cell-based
MGC-803 [11] = assay: Induction of mitochondrial membrane potential loss in human MGC-803 cells at 15 nM after 48 hrs by JC-1 staining based flow cytometric analysis (reference value: 86 %); format: functional
THP-1 = assay: Cytotoxicity against human THP-1 cells assessed as reduction in cell viability; format: cell-based
MGC-803 [12] = assay: Induction of apoptosis in human MGC-803 cells assessed as increase in cleaved PARP expression incubated for 24 hrs by Western blot analysis; format: functional, cell-based
MGC-803 [13] = assay: Induction of cell cycle arrest in human MGC-803 cells assessed as accumulation at S phase at 15 nM incubated for 24 hrs by propidium iodide staining based flow cytometry (reference value: 17.3 %); format: functional
MGC-803 [14] = assay: Inhibition of cell migration in human MGC-803 cells assessed as decrease in wound healing rate at 7.5 to 30 nM measured after 48 hrs by wound healing assay; format: functional, cell-based; settings: dose 7.5-30 nM
MGC-803 [15] = assay: Induction of cell cycle arrest in human MGC-803 cells assessed as accumulation at G1 phase at 15 nM incubated for 24 hrs by propidium iodide staining based flow cytometry (reference value: 45.67 %); format: functional
MGC-803 [16] = assay: Induction of apoptosis in human MGC-803 cells assessed as early apoptotic cells at 7.5 nM measured after 48 hrs by Annexin V-APC/PI double staining based flow cytometry assay (reference value: 1.31 %); format: functional, cell-based
MGC-803 [17] = assay: Induction of apoptosis in human MGC-803 cells assessed as necrotic cells at 30 nM measured after 48 hrs by Annexin V-APC/PI double staining based flow cytometry assay (reference value: 0.57 %); format: functional, cell-based
MGC-803 [18] = assay: Down regulation of Pcdc2 expression in human MGC-803 cells at 7.5 to 30 nM measured after 24 hrs by Western blot analysis; format: functional, cell-based; settings: dose 7.5-30 nM
MGC-803 [19] = assay: Induction of apoptosis in human MGC-803 cells assessed as increase in cleaved Caspase-3 expression incubated for 24 hrs by Western blot analysis; format: functional, cell-based; settings: dose 7.5-30 nM
MGC-803 [20] = assay: Induction of mitochondrial membrane potential loss in human MGC-803 cells at 30 nM after 48 hrs by JC-1 staining based flow cytometric analysis (reference value: 86 %); format: functional
MGC-803 [21] = assay: Induction of apoptosis in human MGC-803 cells assessed as late apoptotic cells at 15 nM measured after 48 hrs by Annexin V-APC/PI double staining based flow cytometry assay (reference value: 1.05 %); format: functional, cell-based
MGC-803 [22] = assay: Induction of cell cycle arrest in human MGC-803 cells assessed as accumulation at G1 phase at 7.5 nM incubated for 24 hrs by propidium iodide staining based flow cytometry (reference value: 45.67 %); format: functional
MGC-803 [23] = assay: Induction of apoptosis in human MGC-803 cells assessed as increase in Caspase-3 expression incubated for 24 hrs by Western blot analysis; format: functional, cell-based; settings: dose 7.5-30 nM
HepG2 = assay: Antiproliferative activity against human HepG2 cells assessed as cell growth inhibition after 72 hrs by SRB assay; format: functional, cell-based; settings: HepG2, 72 h
MGC-803 [24] = assay: Induction of apoptosis in human MGC-803 cells assessed as increase in Caspase-7 expression incubated for 24 hrs by Western blot analysis; format: functional, cell-based; settings: dose 7.5-30 nM
MGC-803 [25] = assay: Induction of mitochondrial membrane potential loss in human MGC-803 cells at 7.5 nM after 48 hrs by JC-1 staining based flow cytometric analysis (reference value: 86 %); format: functional
MGC-803 [26] = assay: Induction of cell cycle arrest in human MGC-803 cells assessed as accumulation at S phase at 7.5 nM incubated for 24 hrs by propidium iodide staining based flow cytometry (reference value: 17.3 %); format: functional
MGC-803 [27] = assay: Induction of cell cycle arrest in human MGC-803 cells assessed as accumulation at G2/M phase at 7.5 nM incubated for 24 hrs by propidium iodide staining based flow cytometry (reference value: 37.03 %); format: functional
MGC-803 [28] = assay: Induction of apoptosis in human MGC-803 cells assessed as increase in cleaved Caspase-7 expression incubated for 24 hrs by Western blot analysis; format: functional, cell-based; settings: dose 7.5-30 nM
MGC-803 [29] = assay: Induction of apoptosis in human MGC-803 cells assessed as late apoptotic cells at 7.5 nM measured after 48 hrs by Annexin V-APC/PI double staining based flow cytometry assay (reference value: 1.05 %); format: functional, cell-based
MGC-803 [30] = assay: Induction of apoptosis in human MGC-803 cells assessed as viable cells at 15 nM measured after 48 hrs by Annexin V-APC/PI double staining based flow cytometry assay (reference value: 92.1 %); format: functional, cell-based

COc1ccc(/C=C\c2cc(OC)c(OC)c(OC)c2)cc1/C=C/C(=O)Nc1ccccc1N
Activity (MGC-803 [1]): Dose-Dependent Effect
Activity (HUVEC [2]): Active
IC50 (L02): 0.556 µM
Activity (MGC-803 [3]): 26%
IC50 (MGC-803 [4]): 0.016 µM
inhibition (Tubulin (Homo sapiens)): Active
inhibition (HUVEC [5]): Active
Activity (Danio rerio): Dose-Dependent Effect
inhibition (MGC-803 [6]): Dose-Dependent Effect
Activity (MGC-803 [7]): Dose-Dependent Effect
Activity (MGC-803 [7]; record 2): 48.16%
Activity (MGC-803 [8]): Dose-Dependent Effect
Activity (MGC-803 [8]; record 2): 84.19%
inhibition (HUVEC [9]): Active
Activity (MGC-803 [10]): Active
Activity (MGC-803 [11]): 63.6%
IC50 (THP-1): 0.195 µM
Activity (MGC-803 [12]): Dose-Dependent Effect
Activity (MGC-803 [13]): 12.7%
inhibition (MGC-803 [14]): Active
Activity (MGC-803 [15]): 39.14%
Activity (MGC-803 [16]): Active
Activity (MGC-803 [17]): Active
Activity (MGC-803 [18]): Active
Activity (MGC-803 [19]): Dose-Dependent Effect
Activity (MGC-803 [20]): 34.5%
Activity (MGC-803 [21]): Active
Activity (MGC-803 [22]): 43.58%
Activity (MGC-803 [23]): Dose-Dependent Effect
IC50 (HepG2): 0.026 µM
Activity (MGC-803 [24]): Dose-Dependent Effect
Activity (MGC-803 [25]): 82.9%
Activity (MGC-803 [26]): 12.6%
Activity (MGC-803 [27]): Dose-Dependent Effect
Activity (MGC-803 [27]; record 2): 43.82%
Activity (MGC-803 [28]): Dose-Dependent Effect
Activity (MGC-803 [29]): Active
Activity (MGC-803 [30]): Active
